Patent US20070128217A1 (priority 2003, published 2007)

Assays:
[1] = test system: antibodies in sera from SARS patients (sera 1a, 1b, 2, 6, 37, 62, London, SARS-yellow, SARS-green); type: binding, human; parameters: Binding of serum 6 to linear peptides of protein X1 of SARS-CoV Urbani / Binding of serum 37 to linear peptides of protein X1 of SARS-CoV Urbani / Binding of serum 6 to looped/cyclic peptide (PEPSCAN-ELISA) / Binding of serum 37 to looped/cyclic peptide (PEPSCAN-ELISA) / Binding of serum 37 to looped/cyclic peptides of protein X1 of SARS-CoV Urbani / Binding of serum 6 to linear peptides of protein X2 / Binding of serum 37 to linear peptides of protein X2 / Binding of serum 37 to looped/cyclic peptides of protein X2 of SARS-CoV Urbani / Binding of serum 6 to linear peptides of protein M of SARS-CoV Urbani / Binding of serum 37 to linear peptides of protein M of SARS-CoV Urbani / Binding of serum 6 to looped/cyclic peptides of protein M of SARS-CoV Urbani / Binding of serum 37 to looped/cyclic peptides of protein M of SARS-CoV Urbani / Binding of serum 6 to linear peptides of protein X3 of SARS-CoV Urbani / Binding of serum 37 to linear peptides of protein X3 of SARS-CoV Urbani / Binding of serum 37 to looped/cyclic peptides of protein X3 of SARS-CoV Urbani / Binding of serum 6 to linear peptides of protein X4 of SARS-CoV Urbani / Binding of serum 37 to linear peptides of protein X4 of SARS-CoV Urbani / Binding of serum 37 to looped/cyclic peptides of protein X4 of SARS-CoV Urbani / Binding of serum 6 to linear peptides of protein X5 of SARS-CoV Urbani / Binding of serum 37 to linear peptides of protein X5 of SARS-CoV Urbani / Binding of serum 37 to looped/cyclic peptides of protein X5 of SARS-CoV Urbani / Binding of serum 6 to linear peptides of protein N of SARS-CoV Urbani / Binding of serum 37 to linear peptides of protein N of SARS-CoV Urbani / Binding of serum 6 to linear peptide (PEPSCAN-ELISA) / Binding of serum 1a to looped/cyclic peptides of protein N of SARS-CoV Urbani / Binding of serum 1b to looped/cyclic peptides of protein N of SARS-CoV Urbani / Binding of serum 2 to looped/cyclic peptides of protein N of SARS-CoV Urbani / Binding of serum 6 to looped/cyclic peptides of protein N of SARS-CoV Urbani / Binding of serum 37 to looped/cyclic peptides of protein N of SARS-CoV Urbani / Binding of serum 62 to looped/cyclic peptides of protein N of SARS-CoV Urbani / Binding of serum London to looped/cyclic peptides of protein N of SARS-CoV Urbani / Binding of serum SARS-green to looped/cyclic peptides of protein N of SARS-CoV Urbani: unit not given here
[2] = test system: control sera (pooled serum of ten healthy LUMC hospital workers; commercial negative donor pooled serum from the Dutch bloodbank); type: binding, human; parameters: Binding of Control serum LUMC to linear peptides / Binding of Control serum Blood-bank to linear peptides / Binding of Control serum LUMC to looped peptides / Binding of Control Serum Blood-Bank to Looped peptides / Binding of Control serum LUMC to linear peptides of the protein M of SARS-CoV Urbani / Binding of Control serum Blood-bank to linear peptides of the protein M of SARS-CoV Urbani / Binding of Control serum LUMC to looped peptides of the protein M of SARS-CoV Urbani / Binding of Control Serum Blood-Bank to Looped peptides of the protein M of SARS-CoV Urbani: unit not given here
[3] = test system: rabbit serum obtained by immunizing a rabbit with the SARS-CoV strain Frankfurt 1; type: binding; parameters: Binding of a rabbit serum to linear peptides / Binding of a rabbit serum to looped peptides / Rabbit serum linear peptides / Rabbit serum looped peptides / Binding of a rabbit serum to linear peptides of protein N of SARS-CoV Urbani (Rabbit serum linear peptides) / Binding of a rabbit serum to looped/cyclic peptides of protein N of SARS-CoV Urbani (Rabbit serum looped peptides): unit not given here

Sequence | Binding of serum 1a to linear peptides of protein X1 of SARS-CoV Urbani [1] | Binding of serum 1a to looped/cyclic peptide (PEPSCAN-ELISA) [1] | Binding of serum 1b to linear peptides of protein X1 of SARS-CoV Urbani [1] | Binding of serum 1b to looped/cyclic peptide (PEPSCAN-ELISA) [1] | Binding of serum 2 to linear peptides of protein X1 of SARS-CoV Urbani [1] | Binding of serum 2 to looped/cyclic peptide (PEPSCAN-ELISA) [1] | Binding of serum 6 to linear peptides of protein X1 of SARS-CoV Urbani [1] | Binding of serum 6 to looped/cyclic peptide (PEPSCAN-ELISA) [1] | Binding of serum 37 to linear peptides of protein X1 of SARS-CoV Urbani [1] | Binding of serum 37 to looped/cyclic peptide (PEPSCAN-ELISA) [1] | Binding of serum 62 to linear peptides of protein X1 of SARS-CoV Urbani [1] | Binding of serum 62 to looped/cyclic peptide (PEPSCAN-ELISA) [1] | Binding of serum London to linear peptides of protein X1 of SARS-CoV Urbani [1] | Binding of serum London to looped/cyclic peptide (PEPSCAN-ELISA) [1] | Binding of Control Serum Blood-Bank to Looped peptides [2] | Binding of Control serum Blood-bank to linear peptides [2] | Binding of Control serum LUMC to linear peptides [2] | Binding of Control serum LUMC to looped peptides [2] | Binding of a rabbit serum to linear peptides [3] | Binding of a rabbit serum to looped peptides [3] | other results
FVTIYSHLLLVAAGM | 0.7 | 0.5 | 0.5 | 0.3 | 0.6 | 0.3 | 0.4 | 0.3 | 0.5 | 0.5 | 0.5 | 0.5 | 0.2 | 0.2 | 0.6 | 0.6 | 0.5 | 0.5 | 0.1 | 0.5 | Binding of serum SARS-green to linear peptides of protein X1 of SARS-CoV Urbani [1]: 0.3; Binding of serum SARS-green to looped/cyclic peptide (PEPSCAN-ELISA) [1]: 0.2; Binding of serum SARS-yellow to linear peptides of protein X1 of SARS-CoV Urbani [1]: 0.5; Binding of serum SARS-yellow to looped/cyclic peptide (PEPSCAN-ELISA) [1]: 0.3
STALQELLIQQWIQF |  |  |  |  |  |  |  |  |  |  |  |  |  |  | 0.6 | 0.6 | 0.3 | 0.7 | 0.3 | 0.4 | Binding of serum 1a to linear peptides of protein X2 [1]: 0.6; Binding of serum 1a to looped/cyclic peptides of protein X2 of SARS-CoV Urbani [1]: 0.6; Binding of serum 1b to linear peptides of protein X2 [1]: 0.4; Binding of serum 1b to looped/cyclic peptides of protein X2 of SARS-CoV Urbani [1]: 0.5; Binding of serum 2 to linear peptides of protein X2 [1]: 0.3; Binding of serum 2 to looped/cyclic peptides of protein X2 of SARS-CoV Urbani [1]: 0.4; Binding of serum 6 to linear peptides of protein X2 [1]: 0.3; Binding of serum 6 to looped/cyclic peptides of protein X2 of SARS-CoV Urbani [1]: 0.2; Binding of serum 37 to linear peptides of protein X2 [1]: 0.5; Binding of serum 37 to looped/cyclic peptides of protein X2 of SARS-CoV Urbani [1]: 0.4; Binding of serum 62 to linear peptides of protein X2 [1]: 0.6; Binding of serum 62 to looped/cyclic peptides of protein X2 of SARS-CoV Urbani [1]: 0.6; Binding of serum London to linear peptides of protein X2 [1]: 0.4; Binding of serum London to looped/cyclic peptides of protein X2 of SARS-CoV Urbani [1]: 0.2; Binding of serum SARS-green to linear peptides of protein X2 [1]: 0.5; Binding of serum SARS-green to looped/cyclic peptides of protein X2 of SARS-CoV Urbani [1]: 0.3; Binding of serum SARS-yellow to linear peptides of protein X2 [1]: 0.3; Binding of serum SARS-yellow to looped/cyclic peptides of protein X2 of SARS-CoV Urbani [1]: 0.5
LALYKGFQFICNLLL | 0.7 | 0.5 | 0.5 | 0.3 | 0.5 | 0.4 | 0.4 | 1.4 | 0.5 | 0.5 | 0.6 | 0.5 | 0.2 | 1.4 | 0.6 | 0.6 | 0.5 | 0.6 | 0.2 | 0.6 | Binding of serum SARS-green to linear peptides of protein X1 of SARS-CoV Urbani [1]: 0.2; Binding of serum SARS-green to looped/cyclic peptide (PEPSCAN-ELISA) [1]: 0.2; Binding of serum SARS-yellow to linear peptides of protein X1 of SARS-CoV Urbani [1]: 0.5; Binding of serum SARS-yellow to looped/cyclic peptide (PEPSCAN-ELISA) [1]: 0.5
